This is an account of results in US11878975B2, “Substituted indole compounds useful as TLR inhibitors” (BRISTOL-MYERS SQUIBB COMPANY, priority 2017, dated 2024).

Assay type in all cases: cell-based
For one assay, the target named is T1, human TLR7 (Homo sapiens, UniProt Q9NYK1).
T1 construct: host or cells: HEK-Blue cells
T1 sequence (Q9NYK1 27-1049): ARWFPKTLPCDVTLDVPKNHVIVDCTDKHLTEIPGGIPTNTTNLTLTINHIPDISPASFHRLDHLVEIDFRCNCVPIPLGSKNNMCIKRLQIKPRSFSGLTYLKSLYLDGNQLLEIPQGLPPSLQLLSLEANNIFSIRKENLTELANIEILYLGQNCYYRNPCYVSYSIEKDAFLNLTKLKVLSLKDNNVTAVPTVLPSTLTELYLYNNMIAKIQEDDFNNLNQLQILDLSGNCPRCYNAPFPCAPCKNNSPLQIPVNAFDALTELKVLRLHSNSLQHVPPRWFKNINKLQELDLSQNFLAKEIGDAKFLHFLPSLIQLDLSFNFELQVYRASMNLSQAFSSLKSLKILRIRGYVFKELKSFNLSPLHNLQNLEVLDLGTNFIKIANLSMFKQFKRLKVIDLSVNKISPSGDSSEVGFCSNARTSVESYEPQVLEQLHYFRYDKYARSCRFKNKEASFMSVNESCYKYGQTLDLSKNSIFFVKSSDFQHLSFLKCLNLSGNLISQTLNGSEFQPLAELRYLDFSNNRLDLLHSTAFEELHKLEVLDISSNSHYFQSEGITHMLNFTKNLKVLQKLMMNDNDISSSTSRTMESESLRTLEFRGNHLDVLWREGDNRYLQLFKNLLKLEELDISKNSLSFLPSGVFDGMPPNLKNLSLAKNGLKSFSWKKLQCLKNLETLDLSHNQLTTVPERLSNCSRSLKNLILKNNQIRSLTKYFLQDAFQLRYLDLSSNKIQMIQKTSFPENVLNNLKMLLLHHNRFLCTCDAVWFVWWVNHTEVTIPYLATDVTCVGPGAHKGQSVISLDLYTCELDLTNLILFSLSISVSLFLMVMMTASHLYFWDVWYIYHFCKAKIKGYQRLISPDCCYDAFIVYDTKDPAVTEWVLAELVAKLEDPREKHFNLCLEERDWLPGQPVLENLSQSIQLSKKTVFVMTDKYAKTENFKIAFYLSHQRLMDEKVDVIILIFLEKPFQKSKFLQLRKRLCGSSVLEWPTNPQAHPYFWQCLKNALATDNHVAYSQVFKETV
The assay is described as follows: TLR7 inhibition reporter assay (HEK-Blue cells, SEAP reporter, gardiquimod stimulation). The settings on record: HEK-Blue cells overexpressing human TLR7, SEAP reporter, gardiquimod 7.5 μM. How it is done:
(§1) TLR7/8/9 Inhibition Reporter Assays
(§2) HEK-Blue™-cells (Invivogen) overexpressing human TLR7, TLR8 or TLR9 receptors were used for screening inhibitors of these receptors using an inducible SEAP (secreted embryonic alkaline phosphatase) reporter gene under the control of the IFN-β minimal promoter fused to five NF-κB and AP-1-binding sites. Briefly, cells are seeded into Greiner 384 well plates (15000 cells per well for TLR7, 20,000 for TLR8 and 25,000 for TLR9) and then treated with test compounds in DMSO to yield a final dose response concentration range of 0.05 nM-50 μM. After a 30 minute compound pre-treatment al room temperature, the cells are then stimulated with a TLR7 ligand (gardiquimod at a final concentration of 7.5 μM), TLR8 ligand (R848 at a final concentration of 15.9 μM) or TLR9 ligand (ODN2006 at a final concentration of 5 nM) to activate NF-κB and AP-1 which induce the production of SEAP. After a 22 hour incubation at 37° C., 5% CO2, SEAP levels are determined with the addition of HEK-Blue™ Detection reagent (Invivogen), a cell culture medium that allows for detection of SEAP, according to manufacturer's specifications. The percent inhibition is determined as the % reduction in the HEK-Blue signal present in wells treated with agonist plus DMSO alone compared to wells treated with a known inhibitor.

Another assay has as its target T2, human TLR8 (Homo sapiens, UniProt Q9NR97).
T2 construct: host or cells: HEK-Blue cells
T2 sequence (Q9NR97 27-1041): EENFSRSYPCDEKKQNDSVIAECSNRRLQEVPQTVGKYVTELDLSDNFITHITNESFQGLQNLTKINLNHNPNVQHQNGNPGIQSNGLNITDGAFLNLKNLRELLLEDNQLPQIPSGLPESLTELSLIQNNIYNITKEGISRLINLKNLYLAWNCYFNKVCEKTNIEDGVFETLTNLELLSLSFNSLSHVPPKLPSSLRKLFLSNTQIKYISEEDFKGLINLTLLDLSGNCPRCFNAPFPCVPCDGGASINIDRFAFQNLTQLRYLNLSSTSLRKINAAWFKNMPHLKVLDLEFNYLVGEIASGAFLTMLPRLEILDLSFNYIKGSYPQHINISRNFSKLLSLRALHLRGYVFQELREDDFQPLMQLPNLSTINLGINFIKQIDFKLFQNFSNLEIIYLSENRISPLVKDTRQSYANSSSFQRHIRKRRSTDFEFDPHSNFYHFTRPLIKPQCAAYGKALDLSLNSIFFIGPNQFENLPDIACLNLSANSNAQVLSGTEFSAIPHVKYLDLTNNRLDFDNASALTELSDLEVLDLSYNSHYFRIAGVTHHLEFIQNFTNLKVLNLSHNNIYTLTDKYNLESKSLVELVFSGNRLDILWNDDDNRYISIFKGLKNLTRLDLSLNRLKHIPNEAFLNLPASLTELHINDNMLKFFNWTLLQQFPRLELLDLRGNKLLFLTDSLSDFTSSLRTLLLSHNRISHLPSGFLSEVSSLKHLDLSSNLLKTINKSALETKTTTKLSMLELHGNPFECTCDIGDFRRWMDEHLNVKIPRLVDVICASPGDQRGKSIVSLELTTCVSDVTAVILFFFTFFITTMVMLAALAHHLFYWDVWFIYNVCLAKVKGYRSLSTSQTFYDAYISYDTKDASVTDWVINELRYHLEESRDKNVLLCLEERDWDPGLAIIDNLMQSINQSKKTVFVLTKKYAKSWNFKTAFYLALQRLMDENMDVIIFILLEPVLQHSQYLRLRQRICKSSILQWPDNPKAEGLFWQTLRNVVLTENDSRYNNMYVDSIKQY
The assay is described as follows: TLR8 inhibition reporter assay (HEK-Blue cells, SEAP reporter, R848 stimulation). The following applies: HEK-Blue cells overexpressing human TLR8, SEAP reporter, R848 15.9 μM. How it is done: as §1, §2
(In general: Reporter assays use an easily measured gene product as a stand-in for the process of interest.)

The target in the next assay is T3, human TLR9 (Homo sapiens, UniProt Q9NR96).
T3 construct: host or cells: HEK-Blue cells
T3 sequence (Q9NR96 26-1032): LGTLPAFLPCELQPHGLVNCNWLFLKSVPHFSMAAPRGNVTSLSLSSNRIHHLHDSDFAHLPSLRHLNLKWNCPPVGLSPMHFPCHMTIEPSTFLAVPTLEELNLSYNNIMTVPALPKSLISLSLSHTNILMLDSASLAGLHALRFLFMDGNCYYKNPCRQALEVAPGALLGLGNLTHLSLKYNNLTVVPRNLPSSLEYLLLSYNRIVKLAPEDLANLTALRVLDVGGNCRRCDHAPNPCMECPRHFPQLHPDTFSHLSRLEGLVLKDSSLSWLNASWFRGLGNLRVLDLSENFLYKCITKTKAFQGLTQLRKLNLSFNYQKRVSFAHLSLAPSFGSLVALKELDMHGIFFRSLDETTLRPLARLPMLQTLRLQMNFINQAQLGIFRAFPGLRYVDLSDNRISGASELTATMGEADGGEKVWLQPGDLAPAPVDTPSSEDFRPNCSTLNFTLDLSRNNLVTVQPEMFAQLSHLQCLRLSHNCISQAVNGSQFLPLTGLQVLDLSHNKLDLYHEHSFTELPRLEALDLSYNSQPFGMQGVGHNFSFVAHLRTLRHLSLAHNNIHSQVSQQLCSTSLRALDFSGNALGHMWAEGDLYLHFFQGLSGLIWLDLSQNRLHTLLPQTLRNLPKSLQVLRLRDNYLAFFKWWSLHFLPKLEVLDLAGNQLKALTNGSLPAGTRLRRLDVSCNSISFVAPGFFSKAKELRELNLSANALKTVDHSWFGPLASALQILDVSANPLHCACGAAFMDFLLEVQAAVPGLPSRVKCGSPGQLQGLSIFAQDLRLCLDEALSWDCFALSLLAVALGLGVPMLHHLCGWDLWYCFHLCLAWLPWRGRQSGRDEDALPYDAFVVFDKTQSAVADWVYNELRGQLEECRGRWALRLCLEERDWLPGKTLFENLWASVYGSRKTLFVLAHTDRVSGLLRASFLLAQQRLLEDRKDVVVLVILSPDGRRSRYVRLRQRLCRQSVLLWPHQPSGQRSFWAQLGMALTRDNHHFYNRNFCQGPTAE
As to the kind of experiment: TLR9 inhibition reporter assay (HEK-Blue cells, SEAP reporter, ODN2006 stimulation). The settings on record: HEK-Blue cells overexpressing human TLR9, SEAP reporter, ODN2006 5 nM. How it is done:
as §1, §2

For the compound `COc1ccc(-c2[nH]c3ccc(C4CCCN(CC(=O)N(C)C)C4)cc3c2C(C)C)cc1OC` (stereo not drawn) [Example 227], the values for the IC50 against human TLR7, against human TLR8 and at human TLR9 were 156 nM, 51 nM and 3770 nM, respectively.
For `Cc1cc(-c2[nH]c3ccc(C4CNC4)cc3c2C(C)C)cn2ncnc12` [Example 257, 6-(5-(azetidin-3-yl)-3-isopropyl-1H-indol-2-yl)-8-methyl-[1,2,4]triazolo[1,5-a]pyridine], the IC50 on human TLR7 amounted to 0.44 nM; at human TLR8, 1.9 nM; against human TLR9, 760 nM.
Turning to `CNC1CCC(c2ccc3[nH]c(-c4cc(C)nc(C)c4)c(C(C)C)c3c2)CC1` (single isomer, unassigned) [Example 51], the IC50 stood at 4 nM against human TLR7, 11 nM against human TLR8 and 602 nM at human TLR9.
Turning to `CNCCN1CCCC(c2ccc3[nH]c(-c4ccc(OC)c(OC)c4)c(C(C)C)c3c2)C1` (stereo not drawn) [Example 254, 2-(3-(2-(3,4-dimethoxyphenyl)-3-isopropyl-1H-indol-5-yl)piperidin-1-yl)-N-methylethanamine], the IC50 amounted to 107 nM on human TLR7, 16 nM on human TLR8 and 742 nM at human TLR9.
On to `Cc1c(-c2[nH]c3ccc(C4CCC(N(C)C)CC4)cc3c2C(C)C)cn2cnnc2c1C` (stereo not drawn) [Example 529], for which the IC50 against human TLR7 amounted to 12 nM; on human TLR8, 39 nM; on human TLR9, 9130 nM.
Regarding `Cc1c(-c2[nH]c3ccc(C4CNC4)cc3c2C(C)C)cn2cnnc2c1C` [Example 531], the IC50 is 57 nM at human TLR7, 137 nM against human TLR8 and 10200 nM at human TLR9.
In the same order, the values of `Cc1c(-c2[nH]c3ccc(C4CCC(N(C)C5COC5)CC4)cc3c2C(C)C)cn2cnnc2c1C` (stereo not drawn) [Example 528] are 2 nM, 16 nM and 5600 nM.
Consider `CNC(=O)CN1CC(c2ccc3[nH]c(-c4cc(OC)c5ncnn5c4)c(C(C)C)c3c2)C1` [Example 263], for which the IC50 on human TLR7 worked out at 2 nM; at human TLR8, 4 nM; against human TLR9, 3620 nM.
On to `Cc1c(-c2[nH]c3ccc(C4CC5CNCC5C4)cc3c2C(C)C)cn2cnnc2c1C` (stereo not drawn) [Example 519], for which the IC50 on human TLR7 worked out at 6 nM; against human TLR8, 127 nM; against human TLR9 it was 2510 nM.
`COc1cc(-c2[nH]c3ccc(C4CCCN(C(=O)C5CCN(C)CC5)C4)cc3c2C(C)C)cn2ncnc12` (stereo not drawn) [Example 194]: the IC50 was determined as 6 nM on human TLR7, 23 nM on human TLR8 and 12000 nM against human TLR9.
As to `Cc1c(-c2[nH]c3ccc(C4CN(CC5(C)COC5)C4)cc3c2C(C)C)cn2cnnc2c1C` [Example 536], the results for the IC50 at human TLR7, at human TLR8 and at human TLR9 were 26 nM, 21 nM and 11000 nM, respectively.
On to `Cc1cc(-c2[nH]c3ccc(C4CCCN(C(=O)[C@@H]5CCN5)C4)cc3c2C(C)C)cc(C)n1` (stereo partly drawn) [Example 220], for which the IC50 amounted to 1 nM on human TLR7, 11 nM against human TLR8 and 339 nM at human TLR9.
In the case of `COc1cc(-c2[nH]c3ccc(C4CC(N(C)C(=O)CN(C)C)C4)cc3c2C(C)C)cn2ncnc12` (stereo not drawn) [Example 585], the IC50 was found to be 0.55 nM against human TLR7, 2.9 nM on human TLR8 and 2810 nM on human TLR9.
On the same counts, the results for `CNCC(=O)NC1CCC(c2ccc3[nH]c(-c4cc(C)nc(C)c4)c(C(C)C)c3c2)CC1` (single isomer, unassigned) [Example 129] are 0.3 nM, 3.9 nM and 544 nM.
On to `COc1cc(-c2[nH]c3ccc(C4CNCCO4)cc3c2C(C)C)cn2ncnc12` (stereo not drawn) [Example 285], for which the IC50 was 0.43 nM against human TLR7, 0.56 nM against human TLR8 and 959 nM on human TLR9.
Regarding `Cc1c(-c2[nH]c3ccc(C4CN(CC(=O)N(C)C)C4)cc3c2C(C)C)cn2cnnc2c1C` [Example 539], the values for the IC50 against human TLR7, against human TLR8 and against human TLR9 were 64 nM, 132 nM and 1890 nM, respectively.
As to `CC(C)c1c(-c2ccnc3[nH]ncc23)[nH]c2ccc(C3CCC(Oc4ccncc4)CC3)cc12` (stereo not drawn) [Example 504], the IC50 against human TLR7 was 98 nM; against human TLR8, 162 nM; at human TLR9, 5010 nM.

The term IC50 denotes the midpoint of a concentration-inhibition curve. Higher therefore signals a need for much substance.
